Assays:
[1] = system: chickweed; experiment: Test D preemergence; assay type: in vivo, Stellaria media; settings: Stellaria media, pre-emergence
Summary of the method: (§1)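 Visual rating vs untreated controls, 0 = no effect, 100 = complete control, taken 7–21 d after treatment. Pre: silt loam soil. Post: potting medium, plants 2–18 cm, 1–4 leaf. Formulation: non-phytotoxic solvent mix + surfactant.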

[2] = system: windgrass; experiment: Test D preemergence; assay type: in vivo, Apera spica-venti; settings: Apera spica-venti, pre-emergence
Summary of the method: as §1

[3] = system: field bindweed; experiment: Test E postemergence; assay type: in vivo, Convolvulus arvensis; settings: Convolvulus arvensis, post-emergence, read-out: Plant response rating, Field Bindweed
Summary of the method: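 Response was scored visually on a 0-100 scale (100 = complete control) versus controls after 14 to 21 days in the greenhouse. Test chemicals, formulated with surfactant in a non-phytotoxic solvent mixture, had been applied preemergence to seeds in silt loam soil or postemergence to 1- to 4-leaf plants in potting medium.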

[4] = system: Italian ryegrass; experiment: Test D postemergence; assay type: in vivo, Lolium multiflorum; settings: Lolium multiflorum, post-emergence
Summary of the method: as §1

[5] = system: bluegrass; experiment: Test D postemergence; assay type: in vivo, Poa annua; settings: Poa annua, post-emergence, Postemergence, scale 0 to 100 (0 no effect, 100 complete control), read-out: Plant response rating, Bluegrass
Summary of the method: as §1

[6] = system: blackgrass; experiment: Test D postemergence; assay type: in vivo, Alopecurus myosuroides; settings: Alopecurus myosuroides, post-emergence, Postemergence, scale 0 to 100 (0 no effect, 100 complete control), read-out: Plant response rating, Blackgrass
Summary of the method: as §1

[7] = system: wild oat; experiment: Test D preemergence; assay type: in vivo, Avena fatua; settings: Avena fatua, pre-emergence
Summary of the method: as §1

[8] = system: windgrass; experiment: Test D postemergence; assay type: in vivo, Apera spica-venti; settings: Apera spica-venti, post-emergence
Summary of the method: as §1

[9] = system: field poppy; experiment: Test D preemergence; assay type: in vivo, Papaver rhoeas; settings: Papaver rhoeas, pre-emergence
Summary of the method: as §1

[10] = system: wild buckwheat; experiment: Test D postemergence; assay type: in vivo, Polygonum convolvulus; settings: Fallopia convolvulus, post-emergence, Postemergence, scale 0 to 100 (0 no effect, 100 complete control), read-out: Plant response rating, Buckwheat, Wild
Summary of the method: as §1

[11] = system: spring wheat; experiment: Test D postemergence; assay type: in vivo, Triticum aestivum; settings: Triticum aestivum, post-emergence
Summary of the method: as §1

[12] = system: winter wheat; experiment: Test D postemergence; assay type: in vivo, Triticum aestivum; settings: Triticum aestivum, post-emergence
Summary of the method: as §1

[13] = system: Italian ryegrass; experiment: Test D preemergence; assay type: in vivo, Lolium multiflorum; settings: Lolium multiflorum, pre-emergence
Summary of the method: as §1

Clc1cnc(Oc2ccccc2-n2cc(Br)cn2)nc1 [Compound 7, 2-[2-(4-bromo-1H-pyrazol-1-yl)phenoxy]-5-chloropyrimidine]
95%: pest or weed control at 250 g/ha ([1]; 250 g ai/ha, scale 0-100, read-out: Plant response rating, Chickweed)
15%: pest or weed control at 8 g/ha ([3]; postemergence, 8 g ai/ha, scale 0 to 100, 0 no effect, 100 complete control) | pest or weed control at 250 g/ha ([5]; 250 g ai/ha)
0%: pest or weed control at 16 g/ha ([1]; 16 g ai/ha, scale 0 (no effect) to 100 (complete control), read-out: Plant response rating, Chickweed) | pest or weed control at 31 g/ha ([1]; 31 g ai/ha, scale 0-100, read-out: Plant response rating, Chickweed) | pest or weed control at 16 g/ha ([2]; 16 g ai/ha, scale 0 (no effect) to 100 (complete control), read-out: Plant response rating, Windgrass) | pest or weed control at 31 g/ha ([2]; 31 g ai/ha, scale 0 (no effect) to 100 (complete control), read-out: Plant response rating, Windgrass) | pest or weed control at 62 g/ha ([2]; 62 g ai/ha, scale 0-100, read-out: Plant response rating, Windgrass) | pest or weed control at 125 g/ha ([2]; 125 g ai/ha, scale 0-100, read-out: Plant response rating, Windgrass) | pest or weed control at 16 g/ha ([4]; 16 g ai/ha, scale 0-100, read-out: Plant response rating, Ryegrass, Italian) | pest or weed control at 31 g/ha ([4]; 31 g ai/ha, scale 0 to 100 (0 no effect, 100 complete control), read-out: Plant response rating, Ryegrass, Italian) | pest or weed control at 62 g/ha ([4]; 62 g ai/ha, scale 0 to 100 (0 no effect, 100 complete control), read-out: Plant response rating, Ryegrass, Italian) | pest or weed control at 125 g/ha ([4]; 125 g ai/ha, scale 0 to 100 (0 no effect, 100 complete control), read-out: Plant response rating, Ryegrass, Italian) | pest or weed control at 250 g/ha ([4]; 250 g ai/ha, scale 0 to 100 (0 no effect, 100 complete control), read-out: Plant response rating, Ryegrass, Italian) | pest or weed control at 16 g/ha ([5]; 16 g ai/ha) | pest or weed control at 31 g/ha ([5]; 31 g ai/ha) | pest or weed control at 62 g/ha ([5]; 62 g ai/ha) | pest or weed control at 16 g/ha ([6]; 16 g ai/ha) | pest or weed control at 16 g/ha ([7]; 16 g ai/ha, scale 0 (no effect) to 100 (complete control), read-out: Plant response rating, Oat, Wild) | pest or weed control at 31 g/ha ([7]; 31 g ai/ha, scale 0-100, read-out: Plant response rating, Oat, Wild) | pest or weed control at 62 g/ha ([7]; 62 g ai/ha, scale 0-100, read-out: Plant response rating, Oat, Wild) | pest or weed control at 16 g/ha ([8]; 16 g ai/ha, scale 0-100, read-out: Plant response rating, Windgrass) | pest or weed control at 31 g/ha ([8]; 31 g ai/ha, scale 0 to 100 (0 no effect, 100 complete control), read-out: Plant response rating, Windgrass) | pest or weed control at 62 g/ha ([8]; 62 g ai/ha, scale 0 to 100 (0 no effect, 100 complete control), read-out: Plant response rating, Windgrass) | pest or weed control at 16 g/ha ([9]; 16 g ai/ha, scale 0 (no effect) to 100 (complete control), read-out: Plant response rating, Field Poppy) | pest or weed control at 31 g/ha ([9]; 31 g ai/ha, scale 0-100, read-out: Plant response rating, Field Poppy) | plant injury at 16 g/ha ([11]; 16 g ai/ha, scale 0-100, read-out: Plant response rating, Wheat, Spring) | plant injury at 31 g/ha ([11]; 31 g ai/ha, scale 0 to 100 (0 no effect, 100 complete control), read-out: Plant response rating, Wheat, Spring) | plant injury at 62 g/ha ([11]; 62 g ai/ha, scale 0 to 100 (0 no effect, 100 complete control), read-out: Plant response rating, Wheat, Spring) | plant injury at 16 g/ha ([12]; 16 g ai/ha, scale 0-100, read-out: Plant response rating, Wheat, Winter) | plant injury at 31 g/ha ([12]; 31 g ai/ha, scale 0 to 100 (0 no effect, 100 complete control), read-out: Plant response rating, Wheat, Winter) | plant injury at 62 g/ha ([12]; 62 g ai/ha, scale 0 to 100 (0 no effect, 100 complete control), read-out: Plant response rating, Wheat, Winter) | pest or weed control at 16 g/ha ([13]; 16 g ai/ha, scale 0 (no effect) to 100 (complete control), read-out: Plant response rating, Ryegrass, Italian) | pest or weed control at 31 g/ha ([13]; 31 g ai/ha, scale 0 (no effect) to 100 (complete control), read-out: Plant response rating, Ryegrass, Italian) | pest or weed control at 62 g/ha ([13]; 62 g ai/ha, scale 0-100, read-out: Plant response rating, Ryegrass, Italian) | pest or weed control at 125 g/ha ([13]; 125 g ai/ha, scale 0-100, read-out: Plant response rating, Ryegrass, Italian)
85%: pest or weed control at 125 g/ha ([10]; 125 g ai/ha)
25%: pest or weed control at 250 g/ha ([6]; 250 g ai/ha) | pest or weed control at 250 g/ha ([8]; 250 g ai/ha, scale 0 to 100 (0 no effect, 100 complete control), read-out: Plant response rating, Windgrass)
50%: pest or weed control at 62 g/ha ([3]; Postemergence, 62 g ai/ha, scale 0 to 100)
70%: pest or weed control at 125 g/ha ([3]; Postemergence, 125 g ai/ha, scale 0 to 100)
20%: pest or weed control at 16 g/ha ([3]; postemergence, 16 g ai/ha, scale 0 to 100, 0 no effect, 100 complete control) | pest or weed control at 16 g/ha ([10]; 16 g ai/ha)
30%: pest or weed control at 250 g/ha ([2]; 250 g ai/ha, scale 0-100, read-out: Plant response rating, Windgrass) | pest or weed control at 31 g/ha ([3]; Postemergence, 31 g ai/ha, scale 0 to 100) | pest or weed control at 62 g/ha ([9]; 62 g ai/ha, scale 0-100, read-out: Plant response rating, Field Poppy) | pest or weed control at 31 g/ha ([10]; 31 g ai/ha)
5%: pest or weed control at 62 g/ha ([6]; 62 g ai/ha) | pest or weed control at 31 g/ha ([6]; 31 g ai/ha) | pest or weed control at 250 g/ha ([13]; 250 g ai/ha, scale 0-100, read-out: Plant response rating, Ryegrass, Italian)
100%: pest or weed control at 250 g/ha ([9]; 250 g ai/ha, scale 0-100, read-out: Plant response rating, Field Poppy) | pest or weed control at 250 g/ha ([10]; 250 g ai/ha)
10%: pest or weed control at 62 g/ha ([1]; 62 g ai/ha, scale 0-100, read-out: Plant response rating, Chickweed) | pest or weed control at 125 g/ha ([5]; 125 g ai/ha) | pest or weed control at 125 g/ha ([6]; 125 g ai/ha) | pest or weed control at 125 g/ha ([7]; 125 g ai/ha, scale 0-100, read-out: Plant response rating, Oat, Wild) | pest or weed control at 250 g/ha ([7]; 250 g ai/ha, scale 0-100, read-out: Plant response rating, Oat, Wild) | pest or weed control at 125 g/ha ([8]; 125 g ai/ha, scale 0 to 100 (0 no effect, 100 complete control), read-out: Plant response rating, Windgrass) | plant injury at 125 g/ha ([11]; 125 g ai/ha, scale 0 to 100 (0 no effect, 100 complete control), read-out: Plant response rating, Wheat, Spring) | plant injury at 250 g/ha ([11]; 250 g ai/ha, scale 0 to 100 (0 no effect, 100 complete control), read-out: Plant response rating, Wheat, Spring) | plant injury at 125 g/ha ([12]; 125 g ai/ha, scale 0 to 100 (0 no effect, 100 complete control), read-out: Plant response rating, Wheat, Winter) | plant injury at 250 g/ha ([12]; 250 g ai/ha, scale 0 to 100 (0 no effect, 100 complete control), read-out: Plant response rating, Wheat, Winter)
90%: pest or weed control at 125 g/ha ([1]; 125 g ai/ha, scale 0-100, read-out: Plant response rating, Chickweed)
60%: pest or weed control at 125 g/ha ([9]; 125 g ai/ha, scale 0-100, read-out: Plant response rating, Field Poppy) | pest or weed control at 62 g/ha ([10]; 62 g ai/ha)
